Experimental data from patent US20260091015A1, “TREATING IRON DEFICIENCY WITH FERRIC CARBOXYMALTOSE” (PHARMACOSMOS HOLDING A/S, priority 2018, published 2026).

Experiments:
PTH = test: Intact PTH sandwich immunoassay, trials IDA-04/IDA-05; assay type: in vivo, human; settings: IDA-04 and IDA-05 combined
Source text: The term “serum parathyroid hormone (PTH)” as used herein refers to the level of serum parathyroid hormone in blood serum as measured using a two-site sandwich immunoassay using direct chemiluminometric technology, which used constant amounts of two anti-human PTH antibodies. PTH, produced by the parathyroid gland, is the major circulating factor regulating extracellular calcium concentration. Abnormally low ionized calcium concentrations trigger the secretion of PTH. The PTH molecules bind to type 1 PTH receptors in target tissues and initiate a sequence of reactions that results in an increase in extracellular calcium concentrations. PTH stimulates osteoclastic bone resorption resulting in the release of calcium from bone. […]
The following safety laboratory assessments were analysed: • S-phosphate: inorganic phosphorous forms an ammonium phosphomolybdate complex having the formula (NH4)3[PO4](MoO3)12 with ammonium molybdate in the presence of sulfuric acid. The complex was determined photometrically in the ultraviolet region (340 nm) of the spectrum using the Roche Modular and Cobas Analyzer. • iFGF23 and cFGF23: the human intact FGF23 was measured by the 2nd generation Elisa kit manufactured by Immonotropics, Inc, San Clemente, CA. […] The human C-terminal FGF23 was measured by the Elisa kit manufactured by Immonotropics, Inc, San Clemente, CA. […]

[1] = Fractional urinary phosphate excretion, spot urine, trials IDA-04/IDA-05; assay type: in vivo, human; settings: FCM vs IIM
Description: The term “fractionary urinary excretion of phosphate (FEPi)” (sometimes abbreviated FEPO4) is a measure of how much phosphate is not re-absorbed from the pre-urine in the kidneys, i.e., how much phosphate ends up in the urine as a proportion of how much phosphate the subject has in the blood. It is calculated like this: FEPi=[PO4 (Urine)*Creatinine (Serum)]/[PO4 (Serum)*Creatinine (Urine)]*100. An FEPi of 10-20% (0.1-0.2 fraction) is usually considered to be normal; an FEPi <10% (<0.1 fraction) is usually considered to be low; and an FEPi >20% (>0.2 fraction) is usually considered to be high. Phosphate in urine is measured using the same methodology as for serum.
The trial was a randomized, open-label, comparative trial. Subjects with Iron Deficiency Anaemia (IDA) were randomized 1:1 to one treatment course of one of the following treatments: • Group A: iron isomaltoside 1000 (Monofer®, Pharmacosmos, Holbok, Denmark, termed iron isomaltoside in the following), 1000 mg at baseline • Group B: ferric carboxymaltose (Ferinject®/Injectafer®, Vifor Inc, Switzerland), 750 mg at baseline and day 7, cumulative dose: 1500 mg […]

human intact FGF23 = test: Intact FGF23 (iFGF23) over time, two-site ELISA, trials IDA-04/IDA-05; assay type: in vivo
Description: The trial was a randomized, open-label, comparative trial. Subjects with Iron Deficiency Anaemia (IDA) were randomized 1:1 to one treatment course of one of the following treatments: • Group A: iron isomaltoside 1000 (Monofer®, Pharmacosmos, Holbok, Denmark, termed iron isomaltoside in the following), 1000 mg at baseline • Group B: ferric carboxymaltose (Ferinject®/Injectafer®, Vifor Inc, Switzerland), 750 mg at baseline and day 7, cumulative dose: 1500 mg
The secondary safety endpoints were the following: • Incidence of s-phosphate below 1.0 mg/dL at any time from baseline to day 35 • Time with hypophosphatemia (i.e. time with s-phosphate <2.0 mg/dL) from baseline to day 35 • Proportion of subjects with hypophosphatemia at day 35 • Absolute [Δ] and relative [%] changes in s-phosphate from baseline to 1, 7, 8, 14, 21, and 35 • Fractional phosphate urinary excretion at 1, 7, 8, 14, 21, and 35 • Change in iFGF23, cFGF23, vitamin D (25, 1,25, 24,25), PTH, and ionized calcium from baseline to 1, 7, 8, 14, 21, and 35 • Type and incidence of AEs • Serious or severe hypersensitivity reaction starting on or after the first dose of randomized treatment (i.e. treatment emergent). The hypersensitivity terms were defined as standardised Medical Dictionary for Regulatory Activities query (SMQ) terms. […]
The following safety laboratory assessments were analysed: • S-phosphate: inorganic phosphorous forms an ammonium phosphomolybdate complex having the formula (NH4)3[PO4](MoO3)12 with ammonium molybdate in the presence of sulfuric acid. The complex was determined photometrically in the ultraviolet region (340 nm) of the spectrum using the Roche Modular and Cobas Analyzer. • iFGF23 and cFGF23: the human intact FGF23 was measured by the 2nd generation Elisa kit manufactured by Immonotropics, Inc, San Clemente, CA. […] The human C-terminal FGF23 was measured by the Elisa kit manufactured by Immonotropics, Inc, San Clemente, CA. […] After evaporation under nitrogen, the residue was reconstituted and analyzed using Liquid Chromatography (LC) with Tandem Mass Spectrometric detection (MS/MS). […] A direct relationship exists between the amount of PTH present in the patient sample and the amount of relative light units (RLUs) detected by the system. • Ionized calcium: Measured by the IL GEM Premier 3500 PAK cartridge. […]

ferric carboxymaltose [FCM]
PTH (PTH): increase
Fractional urinary excretion of phosphate [1]: significantly increased
iFGF23 after administration (human intact FGF23; first administration (750 mg), then gradually declined over days): increased sharply
increase in iFGF23 after second dose relative to first dose (human intact FGF23; repeated dosing one week apart): 2-3 fold
iFGF23 on the second administration, relative to the initial level (human intact FGF23; second administration (750 mg, day 7)): several fold higher
